Where no end group is shown, it is not given here.
Legend:
[1] = system: thymus; assay: Mouse thymus apoptosis after ip peptide for one month; assay type: in vivo, mice; conditions: ip injection for one month
Procedure: Nef motif 1 was administered to mice for one month by ip injection with either Nef motif 1 (Seq. ID No. 19), the 11 mer sequence or the scrambled apoptotic sequence Seq. ID No. 18. […] This provides further indication of the ability of the Nef protein to inhibit immune response related to CD4+ peripheral blood lymphocytes.

[2] = system: Jurkat cell cultures; assay: Nef peptide apoptosis screen (TUNEL); assay type: cell-based; conditions: 24 hours; for apoptosis induced by Nef 20 mer peptides: 10 ng/ml
Procedure: Apoptosis generates DNA free ends which can be labeled in situ using terminal deoxynucleotidyl-transferase (TdT), incorporating an exogenously added labeled nucleotide to the DNA strand. This label can then be visualized directly by fluorescence or indirectly using anti-FITC-peroxidase, and a calorimetric assay. Cells on coverslips were washed with PBS, and fixed for 30 minutes at RT with 4% paraformaldehyde, in PBS, pH 7.4. They were then washed with PBS, and permeabilized with 0.1% Triton X-100 for 10 minutes at room temperature (RT). The slides were rinsed twice with PBS, and air dried for 2 minutes. Then, we followed precisely the manufacturers procedure for TUNEL staining the slides (manufacturer's procedure for the In Situ Cell Death Detection Kit, AP; Boehringer Mannheim, Indianapolis, Ind.). Total cell counts were determined by counterstaining fixed cultures with 20 μg/ml of Hoechst 33258. All specimens were observed by epifluorescence on a computer-controlled microscope system based on a Zeiss Axioskop microscope (Carl Zeiss, Thornwood, N.Y.), and the images were obtained and examined using a charged coupled device (CCD) camera, MagnaFire, model S99806 (Olympus American, Melville, N.Y.). Images were examined using Image-Pro Plus 4.1 for Windows (Media Cybernetics, Silver Springs, Md.) software.
Nef peptides retain much of the binding and signaling activity of the full molecule. A set of 20 mer peptides with 10 aa overlaps, spanning the Nef protein (205 aa), were obtained from the AIDS Reagent Program. Jurkat cell cultures were exposed to each of the Nef peptides at 10 ng/ml for 24 hours, and screened for apoptosis. One peak of apoptosis was observed spanning peptide aa31-50 to […], peaking at aa41-60 and aa51-70. […] Two regions of the Nef protein that induce apoptosis were identified; (1) a major apoptotic peak centering on aa50-60 (motif 1); (2) a minor peak centering on aa170-180 (motif 2). (aa sequence from HIV-1B clade NL403, Ass. No. AF070521) To determine the specificity of the apoptotic motifs, two 11 mer peptides spanning motif 1, were made, one with the correctly ordered sequence (Nef Motif 1-[…]) (Seq. ID No. 17), and the other with the correct amino acids scrambled in random order (Nef scMotif 1-[…]) (Seq. ID No. 18). Jurkat cell cultures were exposed to each of the two peptides at 8 ng/ml for 24 hours, and screened for apoptosis by TUNEL assay. Nef Motif 1 peptide induced 82% of the apoptosis observed using the full Nef protein. […] Thus, (a) Nef aa50-60 is sufficient to bind and induce an apoptotic signal; (b) induction of apoptosis is primary sequence specific. In some of the studies disclosed herein the Nef Motif 1 having an extra acid, namely […] (Seq. ID No. 19) was administered. In this report, Seq. ID No. 17 and Seq. ID No. 19 are both referred to as M-1 or Nef Motif-1 peptide.

[3] = molecular target: T1, CXCR4 receptor (Homo sapiens, UniProt P61073); assay: Fluorescent binding assay with Flc labeled M1 peptide on transfected MDA-MB-468 cells
T1 construct: transiently transfected with a CXCR4 cDNA clone; expressed in transfected cells; host or cells: MDA-MB-468 (human breast tumour line, lacks endogenous CXCR4), transient transfection
T1 sequence (P61073 whole entry): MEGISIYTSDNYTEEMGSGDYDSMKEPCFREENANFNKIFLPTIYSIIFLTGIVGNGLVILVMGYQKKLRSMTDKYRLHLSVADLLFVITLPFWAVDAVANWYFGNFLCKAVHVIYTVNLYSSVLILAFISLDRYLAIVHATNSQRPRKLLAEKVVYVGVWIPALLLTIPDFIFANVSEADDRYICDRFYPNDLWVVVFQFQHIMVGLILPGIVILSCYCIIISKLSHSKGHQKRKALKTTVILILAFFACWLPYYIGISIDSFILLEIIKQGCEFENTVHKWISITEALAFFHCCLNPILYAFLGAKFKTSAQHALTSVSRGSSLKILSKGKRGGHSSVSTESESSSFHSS
Procedure: Specific physical binding to CXCR4 was assayed. The above transfection experiment (MDA-MB-468 cultures either untransfected, or transiently transfected with a CXCR4 cDNA clone, empty vector, or CCR5 cDNA clone) was assayed in the fluorescent binding assay with the Flc labeled M1 peptide.

[4] = system: peripheral lymphocytes; assay: KLH-M1 pre-immunization and Nef peptide challenge: PBL depletion and humoral response; assay type: in vivo, mice
Procedure: Nef Motif 1 peptides linked to keyhole limpet […] (KLH) were administered to 9 mice. Subsequently, the pre-immunized mice and the naive mice were either unchallenged or challenged with Nef peptide for a month. The mice were sacrificed and the PBLs collected.

Substance: ALAETCQNAWA [Nef scMotif 1, Motif 1 amino acids scrambled in random order, reference compound]
- apoptosis in the thymus [1]: No apoptosis
- apoptosis (TUNEL) ([2]; 8 ng/ml, compared with untreated control): only background levels of apoptosis

Substance: Flc-M1 peptide: Flc labeled M1 peptide used in the fluorescent binding assay (NAACAWLEAQ; also: Flc label, place not given here)
- binding of the Flc-M1 peptide ([3]; MDA-MB-468 cells transiently transfected with CCR5 cDNA): refractory to binding
- binding of the Flc-M1 peptide ([3]; MDA-MB-468 cells transiently transfected with empty vector): refractory to binding
- binding of the Flc-M1 peptide ([3]; MDA-MB-468 cells transiently transfected with the CXCR4 clone): significant binding
- binding of the Flc-M1 peptide ([3]; untransfected MDA-MB-468 cells): refractory to binding

Substance: NAACAWLEAQ [Nef Motif 1, Peptide spanning apoptotic motif 1 (aa50-60) of HIV-1 Nef]
- peripheral lymphocyte depletion ([4]; mice challenged with Nef peptide for a month, PBLs collected): induced peripheral lymphocyte depletion
- protective humoral response against the Nef epitope ([4]; mice, naive or pre-immunized): did not stimulate a resultant protective humoral response
- apoptosis relative to that observed using the full Nef protein ([2]; 8 ng/ml, TUNEL): 82%

Substance: TNAACAWLEAQ [Nef motif 1 (Seq. ID No. 19)]
- apoptosis in the thymus [1]: Significant apoptosis

Substance: aa41-60: Nef 20 mer overlapping peptide, residues 41-60, AIDS Reagent Program (GAITSSNTAATNAACAWLEA; UniProt P04601 41-60, looked up, fragment)
- apoptosis induced by Nef 20 mer peptides [2]: peaking

Substance: aa51-70: Nef 20 mer overlapping peptide, residues 51-70, AIDS Reagent Program
- apoptosis induced by Nef 20 mer peptides [2]: peaking

Substance: aa161-180: Nef 20 mer overlapping peptide, residues 161-180, AIDS Reagent Program (NTSLLHPVSLHGMDDPEREV; UniProt P04601 161-180, looked up, fragment)
- apoptosis induced by Nef 20 mer peptides [2]: second, smaller apoptotic peak

Substance: aa171-190: Nef 20 mer overlapping peptide, residues 171-190, AIDS Reagent Program (HGMDDPEREVLEWRFDSRLA; UniProt P04601 171-190, looked up, fragment)
- apoptosis induced by Nef 20 mer peptides [2]: second, smaller apoptotic peak
